According to US9138003B2, “Phosphonates and derivatives thereof as enhancers of the activity of insecticides” (Syngenta Crop Protection Inc., priority 2002, dated 2015):
Where “and” joins values, the source holds several entries; their conditions need not be identical. Identical values can stand only once.

Experiments:
Type in all cases: in vivo
Plutella xylostella = test: feeding/contact test against Plutella xylostella; details: for % control, Alone: no BEEP; for % control, +BEEP: with 0.5% BEEP
Source text: The activity of lambda-cyhalothrin, profenofos and indoxacarb combined with 0.5% bis(2-ethylhexyl)-2-ethylhexyl phosphonate (BEEP) was compared with a corresponding formulation containing no bis(2-ethylhexyl)-2-ethylhexyl phosphonate in a feeding/contact test against Plutella xylostella. The results are set out in Table 2 and show % control.

R2 Myzus persicae = test: translaminar test (3 day assessment time) against R2 Myzus persicae; details: 0.5% BEEP, no insecticide
Source text: The activity of lambda-cyhalothrin, as Karate 10CS with 0.5% bis(2-ethylhexyl)-2-ethylhexyl phosphonate (BEEP) was compared with a Karate 10CS containing no bis(2-ethylhexyl)-2-ethylhexyl phosphonate in a translaminar test (3 day assessment time) against R2 Myzus persicae. The results are set out in Table 3 and show % control.

[1] = tested on: L1/L2 Liriomyza huidobriensis, leaf miner; test: curative control of L1/L2 leaf miner within bean leaves; details: for % control, Alone: no BEEP; for % control, +BEEP: with 0.5% BEEP
Source text: The activity of a range of insecticides combined with 0.5% bis(2-ethylhexyl)-2-ethylhexyl phosphonate (BEEP) was compared with a corresponding formulation containing no bis(2-ethylhexyl)-2-ethylhexyl phosphonate in a test of curative control of L1/L2 Liriomyza huidobriensis, leaf miner. The results are set out in Table 1 and show % control of this leaf miner within bean leaves.

Aphis gossypii = test: translaminar test (3 day assessment time) against Aphis gossypii; details: 0.5% BEOP, no insecticide
Source text: The activity of thiamethoxam as Actara 25WG with bis(2-ethylhexyl) octyl phosphonate (BEOP) at 0.5% was compared with Actara containing no bis(2-ethylhexyl) octyl phosphonate in a translaminar test (3 day assessment time) against Aphis gossypii. The results are set out in Table 4 and show % control.

## CC1(C)[C@H](C(=O)O[C@H](C#N)c2cccc(Oc3ccccc3)c2)[C@@H]1/C=C(\Cl)C(F)(F)F (racemic) [Lambda-cyhalothrin]
Plutella xylostella; 0.31 ppm
  % control, Alone: 54%
  % control, +BEEP: 100%
Plutella xylostella; 0.63 ppm
  % control, Alone: 66%
  % control, +BEEP: 100%
Plutella xylostella; 1.25 ppm
  % control, Alone: 83%
  % control, +BEEP: 100%
Plutella xylostella; 2.5 ppm
  % control, Alone: 95%
  % control, +BEEP: 100%

## CCCCC(CC)COP(=O)(CC(CC)CCCC)OCC(CC)CCCC (stereo not shown) [BEEP, bis(2-ethylhexyl)-2-ethylhexyl phosphonate]
R2 Myzus persicae
  % control, Control +BEEP: 4%
Plutella xylostella; 0.5% BEEP, no insecticide
  % control, Control +BEEP: 11% and 20%
[1]; 0.5% BEEP, no insecticide
  % control, Control +BEEP: 0%

## CCCCCCCCP(=O)(OCC(CC)CCCC)OCC(CC)CCCC (stereo not shown) [BEOP, bis(2-ethylhexyl) octyl phosphonate]
Aphis gossypii
  % control, Control +BEOP: 3%

## N#Cc1nn(-c2c(Cl)cc(C(F)(F)F)cc2Cl)c(N)c1[S+]([O-])C(F)(F)F (stereo not shown) [Fipronil]
[1]; 400 ppm
  % control, Alone: 60%
  % control, +BEEP: 100%
[1]; 600 ppm
  % control, Alone: 69%
  % control, +BEEP: 100%
[1]; 800 ppm
  % control, Alone: 66%
  % control, +BEEP: 100%
[1]; 1000 ppm
  % control, Alone: 83%
  % control, +BEEP: 100%

## COC(=O)N(C(=O)N1CO[C@@]2(C(=O)OC)Cc3cc(Cl)ccc3C2=N1)c1ccc(OC(F)(F)F)cc1 [Indoxacarb]
Plutella xylostella; 0.16 ppm
  % control, Alone: 32%
  % control, +BEEP: 57%
Plutella xylostella; 0.31 ppm
  % control, Alone: 26%
  % control, +BEEP: 80%
Plutella xylostella; 0.63 ppm
  % control, Alone: 32%
  % control, +BEEP: 98%
Plutella xylostella; 1.25 ppm
  % control, Alone: 80%
  % control, +BEEP: 100%

## CCCSP(=O)(OCC)Oc1ccc(Br)cc1Cl (stereo not shown) [Profenofos]
Plutella xylostella; 12.5 ppm
  % control, Alone: 16%
  % control, +BEEP: 65%
Plutella xylostella; 25 ppm
  % control, Alone: 41%
  % control, +BEEP: 95%
Plutella xylostella; 50 ppm
  % control, Alone: 95%
  % control, +BEEP: 100%
Plutella xylostella; 100 ppm
  % control, Alone: 100%
  % control, +BEEP: 100%

## CCOCn1c(-c2ccc(Cl)cc2)c(C#N)c(Br)c1C(F)(F)F [chlorfenpyr]
[1]; 400 ppm
  % control, Alone: 0%
  % control, +BEEP: 100%
[1]; 600 ppm
  % control, Alone: 15%
  % control, +BEEP: 100%
[1]; 800 ppm
  % control, Alone: 0%
  % control, +BEEP: 100%
[1]; 1000 ppm
  % control, Alone: 28%
  % control, +BEEP: 100%

## Nc1nc(N)nc(NC2CC2)n1 [cypromazine]
[1]; 25 ppm
  % control, Alone: 27%
  % control, +BEEP: 28%
[1]; 50 ppm
  % control, Alone: 57%
  % control, +BEEP: 83%
[1]; 100 ppm
  % control, Alone: 81%
  % control, +BEEP: 100%
[1]; 200 ppm
  % control, Alone: 100%
  % control, +BEEP: 100%

## CN1COCN(Cc2cnc(Cl)s2)/C1=N\[N+](=O)[O-] [thiamethoxam]
[1]; 400 ppm
  % control, Alone: 0%
  % control, +BEEP: 20%
[1]; 600 ppm
  % control, Alone: 0%
  % control, +BEEP: 43%
[1]; 800 ppm
  % control, Alone: 0%
  % control, +BEEP: 63%
[1]; 1000 ppm
  % control, Alone: 12%
  % control, +BEEP: 68%

## Abamectin
[1]; 3.13 ppm
  % control, Alone: 27%
  % control, +BEEP: 99%
[1]; 6.25 ppm
  % control, Alone: 48%
  % control, +BEEP: 100%
[1]; 12.5 ppm
  % control, Alone: 74%
  % control, +BEEP: 100%
[1]; 25 ppm
  % control, Alone: 96%
  % control, +BEEP: 100%

## spinosad
[1]; 400 ppm
  % control, Alone: 42%
  % control, +BEEP: 100%
[1]; 600 ppm
  % control, Alone: 73%
  % control, +BEEP: 100%
[1]; 800 ppm
  % control, Alone: 82%
  % control, +BEEP: 100%
[1]; 1000 ppm
  % control, Alone: 81%
  % control, +BEEP: 100%
